Test results: PMC6332339, “Synthesis, Characterization, and Anti-Cancer Activity of Some New N′-(2-Oxoindolin-3-ylidene)-2-propylpentane hydrazide-hydrazones Derivatives” (Molecules, 2015)
“Also recorded” adds a separate entry of the source.

What was measured:
[1] = tested on: HepG2 human liver cancer cell line; experiment: MTT cytotoxicity assay in HepG2 cells; format: cell-based; conditions: 24 h treatment, mean ± SD; for IC50: Homo sapiens
Protocol: (§1) The cyto-toxicity activity was measured in vitro in HepG2, Jurkat, and HEK 293 cells using the MTT […] colorimetric assay. For comparison, 5-Fluorouracil (5-FU) was used as a standard anti-cancer drug. Treatment with dimethylsulfoxide (DMSO) was used as a control for the cancer cells.
(§2) The stock concentration of the entire compound in DMSO was 10 mM and this concentration was used to prepare the working dilution. The final DMSO concentration used in the experiments was ≤0.5% as the working concentration. Human liver cancer cell lines (HepG2), human leukemia cell line (Jurkat), and human embryonic kidney cell line (HEK293) cells were cultured in high glucose Dulbecco’s Modified Eagle Medium (DMEM: Life technologies cat #11995073) supplemented with 10% Fetal bovine serum (FBS: Life technologies cat #16000044) in a humidified incubator with 5% CO2 at 37 °C. Around 2 ×10^3 cells were seeded in each well of a 24-well cell culture plate and were allowed to adhere and grow for 24 h. The Jurkat cells grow in suspension so they were cultured and allowed to grow overnight before the addition of compounds. The compounds in serial dilutions (1, 3, 15, 45, 100, and 300 μM) were added after 24 h of culture and the cells were cultured for another 24 h at 37 °C. The cell viability was determined in each experiment using MTT 1-(4,5-dimethylthiazol-2-yl)-3,5-diphenylformazan colorimetric assay. Briefly, the treated or untreated cells were trypsenized and centrifuged, and the resulting pellet was re-suspended in 100 μL of DMEM serum-free medium and incubated at 37 °C for 2 h. After incubation, 20 μL of MTT solution (5 mg/mL in PBS: Sigma Aldrich cat #M2003) was added to each well and further incubated for 2 h. The plate was centrifuged at […] for 10 min then the medium was removed from each well and 2-propanol containing 0.04 M HCl was added to dissolve the formazan produced in the cells. The optical density of the formazan product in solution was measured with a microplate reader at 540 nm. The experiment was conducted in triplicate. Data were calculated as percent of cell viability by the following formula:
(§3) % cell viability = (Mean absorbance in test wells/Mean absorbance in control wells) × 100 (1)
(§4) The IC50 values were calculated from the means of six different concentrations by Bio Data Fit 1.02 using the software Bio Tool Kit (Version 300; Chang Bioscience Inc., Castro Valley, CA, USA) and online program http://ic50.tk/index.html.

[2] = tested on: Jurkat human leukaemia cell line; experiment: MTT cytotoxicity assay in Jurkat cells; format: cell-based; conditions: 24 h treatment, mean ± SD
Protocol: as §1, §2, §3, §4

[3] = tested on: HEK293 human embryonic kidney cell line; experiment: MTT cytotoxicity assay in normal HEK293 cells; format: cell-based; conditions: 24 h treatment, mean ± SD; for IC50: Homo sapiens
Protocol: as §1, §2, §3, §4

[4] = tested on: human tumour cell lines (HepG2 and Jurkat); experiment: MTT assay, summary over the tested human tumour cell lines; format: cell-based; conditions: summary over HepG2 and Jurkat cells
Protocol: as §1, §2, §3, §4

| melting point | IC50 [4] | SMILES | IC50 (μM) HepG2 [1] | IC50 [1] | IC50 ([2]; Homo sapiens, Jurkat, 24 h) | IC50 [3] | IC50 ([2]; Homo sapiens) | IC50 [2] | IC50 (μM) Jurkat [2] | IC50 (μM) HEK293 [3] |
| --- | --- | --- | --- | --- | --- | --- | --- | --- | --- | --- |
| – | – | CC(=O)N1C(=O)C(=O)c2ccccc21 [Compound 3h, N-acetylisatin] | no anti-cancer activity | > 100 µM | > 100 µM | > 100 µM | – | – | – | – |
| 180 to 182 °C | – | CCCC(CCC)C(=O)N/N=C1\C(=O)Nc2ccc(F)cc21 [Compound 4d, (Z) N′-(5-Fluoro-2-oxoindolin-3-ylidene)-2-propylpentane Hydrazide] | – | > 100 µM | > 100 µM | > 100 µM | – | – | – | – |
| 175 to 176 °C | 3 to 7 µM | CCCC(CCC)C(=O)N/N=C1\C(=O)Nc2ccccc21 [Compound 4a, (Z) N′-(2-Oxoindolin-3-ylidene)-2-propylpentane Hydrazide] | inactive; also recorded: no anti-cancer activity | > 100 µM | 3.14 µM | > 100 µM | – | 3.15 µM | strong activity | inactive |
| – | – | CCCC(CCC)C(=O)NN [Compound 2, Valproic Hydrazide] | did not show promising anti-cancer activity | 68.5 ± 37.1 µM | > 100 µM | > 100 µM | – | – | – | – |
| 154 to 156 °C | 3 to 7 µM | CCCC(CCC)C(=O)N/N=C1\C(=O)Nc2ccc(Cl)cc21 [Compound 4c, (Z) N′-(5-Chloro-2-oxoindolin-3-ylidene)-2-propylpentane Hydrazide] | – | 4.39 µM | 2.9 µM | 4.77 µM | – | – | strong activity | – |
| – | 32 to 50 µM | O=c1[nH]cc(F)c(=O)[nH]1 [Compound 5-FU, 5-Fluorouracil, reference compound] | – | 32.1 ± 48.1 µM | 51.2 ± 47.4 µM | > 100 µM | – | – | – | – |
| 154 to 156 °C | 3 to 7 µM | CCCC(CCC)C(=O)N/N=C1\C(=O)N(C)c2ccccc21 [Compound 4e, (Z) N′-(1-Methyl-2-oxoindolin-3-ylidene)-2-propylpentane Hydrazide] | – | 7.61 µM | 3.19 µM | > 100 µM | – | – | – | no activity |
| 180 to 181 °C | – | CCCC(CCC)C(=O)NNC(=O)C(=O)c1ccccc1NC(C)=O [Compound 4h, N-(2-(2-Oxo-2-(2-(2-propylpentanoyl)hydrazinyl)acetyl)phenyl) Acetamide] | no anti-cancer activity | > 100 µM | > 100 µM | > 100 µM | – | – | – | – |
| – | – | O=C1Nc2ccccc2C1=O [Compound 3a] | no anti-cancer activity | > 100 µM | > 100 µM | 16.7 ± 50 µM | – | – | – | – |
| – | 3 to 7 µM | O=C1C(=O)N(Cc2ccccc2)c2ccccc21 [Compound 3f] | – | 3.13 µM | 3.13 µM | > 100 µM | – | – | strong activity | no activity |
| – | – | CCCC(CCC)C(=O)O [Compound 1, Valproic acid, reference compound] | did not show promising anti-cancer activity | 69.7 ± 40.8 µM | 79.4 ± 40.7 µM | 63 ± 38.2 µM | – | – | – | – |
| 172 to 173 °C | – | CCCC(CCC)C(=O)N/N=C1\C(=O)Nc2ccc(Br)cc21 [Compound 4b, (Z) N′-(5-Bromo-2-oxoindolin-3-ylidene)-2-propylpentane Hydrazide] | no anti-cancer activity | > 100 µM | > 100 µM | 26.1 ± 31.3 µM | – | – | – | – |
| 170 to 172 °C | – | CCCC(CCC)C(=O)N/N=C1\C(=O)N(Cc2ccccc2)c2ccccc21 [Compound 4f, (Z) N′-(1-Benzyl-2-oxoindolin-3-ylidene)-2-propylpentane Hydrazide] | no anti-cancer activity | > 100 µM | > 100 µM | > 100 µM | – | – | – | – |

| SMILES | melting point | IC50 [4] | IC50 (μM) HepG2 [1] | IC50 [1] | IC50 ([2]; Homo sapiens, Jurkat, 24 h) | IC50 [3] | IC50 ([2]; Homo sapiens) | IC50 [2] | IC50 (μM) Jurkat [2] | IC50 (μM) HEK293 [3] |
| --- | --- | --- | --- | --- | --- | --- | --- | --- | --- | --- |
| CCCC(CCC)C(=O)N/N=C1\C(=O)N(CCBr)c2ccccc21 [Compound 4g, (Z)-N′-(1-(2-Bromoethyl)-2-oxoindolin-3-ylidene)-2-propylpentane Hydrazide] | 90 to 91 °C | – | no anti-cancer activity | > 100 µM | – | 45.4 ± 48.9 µM | > 100 µM | – | – | – |
| CN1C(=O)C(=O)c2ccccc21 [Compound 3e] | – | 3 to 7 µM | – | 2.82 µM | – | > 100 µM | 7.13 µM | – | – | no activity |
